For experiment [1], the target named is T1, β-glucuronidase (Escherichia coli, UniProt P05804).
T1 construct: gene uidA
The experiment is described as follows: PNPG hydrolysis assay at […] nm with commercial enzyme; positive control. In kind it is biochemical.

The target in experiment [2] is T1, β-glucuronidase. The experiment is described as follows: PNPG hydrolysis assay at […] nm with commercial enzyme; Lineweaver-Burk and secondary plots (IC50 […]). Type of experiment: biochemical.

By IC50 is commonly meant the concentration at which inhibition is half-maximal. Read a high IC50 as weaker potency. As usually defined, the Ki is the equilibrium dissociation constant of an inhibitor or competing ligand from its target.

Molecules are shown by their SMILES.

T1 sequence (P05804 whole entry): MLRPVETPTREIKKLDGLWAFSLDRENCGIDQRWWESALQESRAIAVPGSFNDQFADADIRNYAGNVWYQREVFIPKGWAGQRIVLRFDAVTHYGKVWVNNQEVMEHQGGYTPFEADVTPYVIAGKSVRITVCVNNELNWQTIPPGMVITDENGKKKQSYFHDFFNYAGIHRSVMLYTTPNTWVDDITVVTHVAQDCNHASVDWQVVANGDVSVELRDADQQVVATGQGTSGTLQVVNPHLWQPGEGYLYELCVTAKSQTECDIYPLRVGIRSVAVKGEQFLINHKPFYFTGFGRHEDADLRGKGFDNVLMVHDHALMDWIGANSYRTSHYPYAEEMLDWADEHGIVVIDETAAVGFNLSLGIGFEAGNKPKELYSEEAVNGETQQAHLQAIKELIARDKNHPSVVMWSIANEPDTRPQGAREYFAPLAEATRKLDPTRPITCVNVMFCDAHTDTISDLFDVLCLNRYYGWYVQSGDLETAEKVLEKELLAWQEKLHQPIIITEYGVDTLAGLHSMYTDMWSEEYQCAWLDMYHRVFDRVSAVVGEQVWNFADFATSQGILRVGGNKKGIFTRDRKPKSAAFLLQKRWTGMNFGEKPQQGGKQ

As to `O=C(O)[C@@H](O)[C@H]1OC(=O)[C@H](O)[C@H]1O` [DSA, D-saccharic acid 1,4-lactone], 19.6 ± 2.4 µM corresponded to half-maximal inhibition in experiment [1] (IC50).

Turning to `COc1cc(/C=C/C(=O)O[C@H]2[C@H](O)[C@@H](CO)O[C@@]2(CO)O[C@H]2O[C@H](CO)[C@@H](OC(=O)c3ccccc3)[C@H](O)[C@H]2O)cc(OC)c1OC` [compound 3, 4-O-Benzoyl-3′-O-(O-methylsinapoyl) sucrose], affinity in experiment [2] was put at a Ki of 13.4 µM.

These data come from article PMC9705844, “Inhibitory Activity of 4-O-Benzoyl-3′-O-(OMethylsinapoyl) Sucrose from Polygala tenuifolia on Escherichia coli β-Glucuronidase” (Journal of Microbiology and Biotechnology, 2021).
